# Reference: US6410790B1, “3-amin3-arylpropan-1-ol compounds, their preparation and use” (priority 1999, dated 2002)
# Assays:
# [1] = system: phenylquinone-induced writhing reaction; experiment: phenylquinone-induced writhing test in mice; assay type: in vivo; conditions: male NMRI mice, phenylquinone i.p. 10 minutes later; for inhibition in vivo at 10 mg/kg: Mus musculus, iv, 10 min, 10 mg/kg intravenously
# How it was run: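 Male NMRI mice (25–30 g, n=10/group) received test substance i.v. at 10 mg/kg, then 0.02% phenylquinone i.p. 10 min later. Writhing reactions were counted 5–20 min after phenylquinone; % inhibition is relative to saline-treated controls.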
# NA transporter = molecular target: T1, NA transporter (Rattus norvegicus, UniProt Q63380); experiment: synaptosomal noradrenaline uptake inhibition (NA uptake inhibition); assay type: biochemical; conditions: for NA Uptake Inhibition at 1 μM: 1 μM in the assay, synaptosomes from rat hypothalamus; for inhibition at 1 µM: read-out: NA Uptake Inhibition at 1 μM, 1 μM in the assay, synaptosomes from rat hypothalamus
# T1 construct: synaptosomes are isolated fresh from rat brains; from tissue; host or cells: rat hypothalamus synaptosomes (P2 fraction)
# T1 sequence (Q63380 1-617): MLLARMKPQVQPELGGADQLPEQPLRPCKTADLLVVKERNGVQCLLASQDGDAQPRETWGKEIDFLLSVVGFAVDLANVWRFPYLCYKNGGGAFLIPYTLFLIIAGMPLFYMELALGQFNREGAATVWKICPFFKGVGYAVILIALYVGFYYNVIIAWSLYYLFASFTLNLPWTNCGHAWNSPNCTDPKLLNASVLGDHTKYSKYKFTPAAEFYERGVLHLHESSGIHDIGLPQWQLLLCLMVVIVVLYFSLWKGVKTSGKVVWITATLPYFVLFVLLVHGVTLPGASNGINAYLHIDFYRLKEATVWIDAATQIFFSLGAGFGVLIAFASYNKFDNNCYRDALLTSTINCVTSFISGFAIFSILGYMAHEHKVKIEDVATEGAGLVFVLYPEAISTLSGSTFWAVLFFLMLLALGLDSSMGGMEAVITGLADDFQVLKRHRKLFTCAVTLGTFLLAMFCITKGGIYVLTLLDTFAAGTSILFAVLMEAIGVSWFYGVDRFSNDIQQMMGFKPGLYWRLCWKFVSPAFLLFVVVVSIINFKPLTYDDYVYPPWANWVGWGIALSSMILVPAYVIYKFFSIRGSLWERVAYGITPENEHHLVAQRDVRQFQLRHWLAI
# How it was run: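 IC50 values converted to Ki via Cheng-Prusoff; Km by Lineweaver-Burk. N=4 independent series, each in triplicate, mean ± SEM.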
# [2] = system: phenylalkylamine binding site of the L-type calcium channel; experiment: Verapamil binding, L calcium channel; conditions: for Verapamil Binding at 10 μM: percentage inhibition, N-methyl-[3H]-verapamil 2 nM
# Protocol: Binding Investigations in the L Calcium Channel
# Phenylalkylamine Binding Site (Verapamil Binding)
# The biological material (ion channel particles) was prepared on the basis of the publication of Reynolds, Gould and Snyder (I. J. Reynolds, R. J. Gould and S. H. Snyder (1983) […]. 95, 319-321).
# N-methyl-[^3H]-verapamil (2 nM in the assay) was used as radioligand. The radioactivity that is measured in the presence of non-radioactive verapamil (10^−4 M in the assay) is defined as non-specific binding. The material was incubated at 25° C. for 45 minutes. The material was then filtered using a Whatman GF/B filter, followed by washing. The radioactivity remaining on the filter (ion channel binding) was measured using a β-counter.
# For this purpose IC50 values are obtained, which can be converted to inhibitor constants (Ki) according to the “Cheng-Prusoff equation” (Y. C. Clieng and W. H. Prusoff (1973) Biochem. Pharmacol. 22, 3099-3108). The IC50 values were obtained by means of the computer program “Figure P” (version 6.0, Biosoft, Cambridge, England). Km values were calculated according to Lineweaver and Burk (H. Lineweaver and D. Burk (1934) J. Am. Chem. Soc. 56, 658-666). The “Ligand” computer program (version 4, Biosoft, England) was used to obtain Ken values.
# [3] = system: benzothiazepine binding site of the L-type calcium channel; experiment: Diltiazem binding, L calcium channel; design: species or system rat; conditions: 10 μM, percentage inhibition, [3H]-cis-(+)-diltiazem 5 nM, rat cerebral cortex membranes
# How it was run: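 Rat cerebral cortex membranes incubated with [^3H]-cis-(+)-diltiazem (5 nM) for 20 min at 25° C; nonspecific binding defined with (±)-diltiazem (10^−6 M). Bound ligand collected by GF/B filtration and counted; IC50 values converted to Ki by Cheng-Prusoff.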
# [4] = system: binding site 2 of the sodium channel; experiment: BTX binding, sodium channel; conditions: 10 μM, percentage inhibition, [3H]-batrachotoxin A20 α-benzoate 10 nM, rat cerebral cortex synaptosomes
# How it was run: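 Rat cerebral cortex synaptosomes incubated with 10 nM [^3H]-batrachotoxin A20 α-benzoate at 37° C for 120 min; non-specific binding defined with 0.3 mM veratridine. IC50 values converted to Ki via Cheng-Prusoff; means±SEM of 3 independent series run in triplicate.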
smiles,measurement,setting,value
"CN(C)C(c1ccccc1)C1CCCCC1(O)c1ccc(Cl)c(Cl)c1.Cl (single isomer, unassigned; (+)) [+19, (+)-1-(3,4-dichlorophenyl)-2-(dimethylaminophenylmethyl)cyclohexanol, hydrochloride]",inhibition in vivo at 10 mg/kg,[1],74%
same,NA Uptake Inhibition at 1 μM,NA transporter; hydrochloride,62%
same,Verapamil Binding at 10 μM,[2]; hydrochloride,82%
same,Diltiazem Binding at 10 μM,[3],85%
same,BTX Binding at 10 μM,[4]; hydrochloride,92%
"CN(C)C(c1ccccc1)C1CCCCC1(O)c1ccc(Cl)c(Cl)c1.Cl (single isomer, unassigned; (-)) [−19, (−)-1(3,4-dichlorophenyl)-2-(dimethylaminophenylmethyl)cyclohexanol, hydrochloride]",% Inhibition of the writhing reaction at 10 mg/kg intravenously,"[1]; hydrochloride, 10 mg/kg",88%
same,NA Uptake Inhibition at 1 μM,NA transporter; hydrochloride,36%
same,Verapamil Binding at 10 μM,[2]; hydrochloride,83%
same,Diltiazem Binding at 10 μM,[3],85%
same,BTX Binding at 10 μM,[4]; hydrochloride,96%
"COc1cccc(C2(O)CCCCC2C(c2ccccc2)N(C)C)c1.Cl (centres unmarked) [Example 1, 2-(dimethlylaminophenylmethyl)-1-(3-methoxyphenyl)cyclohexanol, hydrochloride]",% Inhibition of the writhing reaction at 10 mg/kg intravenously,[1],85%
same,NA Uptake Inhibition at 1 μM,NA transporter,41%
same,Verapamil Binding at 10 μM,[2],76%
same,Diltiazem Binding at 10 μM,[3],65%
same,BTX Binding at 10 μM,[4],77%
"CN(C)C(c1ccccc1)C1CCCCC1(O)c1cccc(F)c1.Cl (centres unmarked) [Example 2, 2-(dimethylaminophenylmethyl)-1-(3-fluorophenyl)cyclohexaniol, hydrochloride]",% Inhibition of the writhing reaction at 10 mg/kg intravenously,[1],88%
same,NA Uptake Inhibition at 1 μM,NA transporter,52%
same,Verapamil Binding at 10 μM,[2],76%
same,Diltiazem Binding at 10 μM,[3],52%
same,BTX Binding at 10 μM,[4],80%
"CN(C)C(c1ccccc1)C1CCCCC1(O)c1ccccc1.Cl (centres unmarked) [Example 3, 2-(dimethylaminophenylmethyl)-1-phenylcyclohexanol, hydrochloride]",inhibition in vivo at 10 mg/kg,[1],83%
same,inhibition at 1 µM,NA transporter,41%
same,Verapamil Binding at 10 μM,[2],68%
same,Diltiazem Binding at 10 μM,[3],50%
same,BTX Binding at 10 μM,[4],78%
CN(C)C(c1ccccc1)C1CCCCC1(O)c1cccc(O)c1.Cl (centres unmarked) [Example 4],% Inhibition of the writhing reaction at 10 mg/kg intravenously,[1],75%
same,NA Uptake Inhibition at 1 μM,NA transporter,49%
same,Verapamil Binding at 10 μM,[2],57%
same,Diltiazem Binding at 10 μM,[3],46%
same,BTX Binding at 10 μM,[4],70%
"COc1ccc(C2(O)CCCCC2C(c2ccccc2)N(C)C)cc1.Cl (centres unmarked) [Example 5, 2-(dimethylaminophenylmethyl)-1-(4-methoxyphenyl)cyclohexanol, hydrochloride]",inhibition in vivo at 10 mg/kg,[1],100%
same,inhibition at 1 µM,NA transporter,70%
same,Verapamil Binding at 10 μM,[2],56%
same,Diltiazem Binding at 10 μM,[3],54%
same,BTX Binding at 10 μM,[4],97%
"CN(C)C(c1ccccc1)C1CCCCC1(O)c1ccc(Cl)c(Cl)c1 (centres unmarked) [Example 19, 1-(3,4-dichlorophenyl)-2-(dimethylaminophenylmethyl)-cyclohexanol]",NA Uptake Inhibition at 1 μM,NA transporter,50%
same,Verapamil Binding at 10 μM,[2],81%
same,BTX Binding at 10 μM,[4],97%
"CN(C)C(c1ccccc1)C1CC(c2ccccc2)CCC1(O)Cc1ccccc1.Cl (centres unmarked) [Example 72, 1-benzyl-2-(dimethylaminophenylmethyl)-4-phenylcyclohexanol, hydrochloride]",inhibition in vivo at 10 mg/kg,[1],89%
same,inhibition at 1 µM,NA transporter,64%
same,Diltiazem Binding at 10 μM,[3],97%
same,BTX Binding at 10 μM,[4],99%
CN(C)C(c1ccccc1)C1CCCCC1(O)c1ccc(Br)cc1.Cl (centres unmarked) [Example 73],% Inhibition of the writhing reaction at 10 mg/kg intravenously,[1],75%
same,NA Uptake Inhibition at 1 μM,NA transporter,61%
same,Diltiazem Binding at 10 μM,[3],89%
same,BTX Binding at 10 μM,[4],93%
"CN(C)C(c1ccccc1)C1CCCCC1(O)c1cccc2ccccc12.Cl (centres unmarked) [Example 74, 2-(dimethylaminophenylmethyl)-1-naphthalene-1-ylcyclohexanol, hydrochloride]",inhibition in vivo at 10 mg/kg,[1],37%
same,inhibition at 1 µM,NA transporter,24%
same,Diltiazem Binding at 10 μM,[3],83%
same,BTX Binding at 10 μM,[4],93%
"CSc1ccccc1C1(O)CCCCC1C(c1ccccc1)N(C)C.Cl (centres unmarked) [Example 75, 2-(dimethylaminophenylmethyl)-1-(2-methylsulfanylphenyl)cyclohexanol, hydrochloride]",inhibition in vivo at 10 mg/kg,[1],57%
same,inhibition at 1 µM,NA transporter,0%
same,Diltiazem Binding at 10 μM,[3],89%
same,BTX Binding at 10 μM,[4],93%
"CN(C)C(c1ccc2ccccc2c1)C1CCCCC1(O)Cc1ccccc1.Cl (centres unmarked) [Example 76, 1-benzyl-2-(dimethylaminonaphthalene-2-ylmethyl)cyclohexanol, hydrochloride]",inhibition in vivo at 10 mg/kg,[1],60%
same,inhibition at 1 µM,NA transporter,80%
same,Diltiazem Binding at 10 μM,[3],73%
same,BTX Binding at 10 μM,[4],90%
"CN(C)C(c1c(F)c(F)c(F)c(F)c1F)C1CCCCC1(O)Cc1ccccc1.Cl (centres unmarked) [Example 77, 1-benzyl-2-(dimethylaminopentafluorophenylmethyl)cyclohexanol, hydrochloride]",inhibition in vivo at 10 mg/kg,[1],54%
same,inhibition at 1 µM,NA transporter,27%
same,Diltiazem Binding at 10 μM,[3],27%
same,BTX Binding at 10 μM,[4],56%
"Cl.OC1(Cc2ccccc2)CCCCC1C(c1ccccc1)N1CCCCC1 (centres unmarked) [Example 78, 1-benzyl-2-(phenylpiperidin-1-ylmethyl)cyclohexanol, hydrochloride]",inhibition in vivo at 10 mg/kg,[1],73%
same,inhibition at 1 µM,NA transporter,84%
same,Diltiazem Binding at 10 μM,[3],95%
same,BTX Binding at 10 μM,[4],96%
CN(C)C(c1ccccc1)C1CCCCC1(O)c1ccc(C(F)(F)F)cc1.Cl (centres unmarked) [Example 79],% Inhibition of the writhing reaction at 10 mg/kg intravenously,[1],71%
same,NA Uptake Inhibition at 1 μM,NA transporter,58%
same,Diltiazem Binding at 10 μM,[3],67%
same,BTX Binding at 10 μM,[4],93%
CCC(O)(Cc1ccc(C(C)(C)C)cc1)C(C)C(c1ccccc1)N(C)C.Cl (centres unmarked) [Example 80],% Inhibition of the writhing reaction at 10 mg/kg intravenously,[1],61%
same,NA Uptake Inhibition at 1 μM,NA transporter,18%
same,Diltiazem Binding at 10 μM,[3],100%
same,BTX Binding at 10 μM,[4],100%
"Cc1ccccc1C(C1CCCCC1(O)c1ccccc1)N(C)C.Cl (centres unmarked) [Example 81, 2-(dimethylamino-o-tolylmethyl)-1-phenylcyclohexanol, hydrochloride]",% Inhibition of the writhing reaction at 10 mg/kg intravenously,"[1]; hydrochloride, 10 mg/kg",75%
same,NA Uptake Inhibition at 1 μM,NA transporter; hydrochloride,66%
same,Diltiazem Binding at 10 μM,[3]; hydrochloride,83%
same,BTX Binding at 10 μM,[4]; hydrochloride,99%
"CN(C)C(c1cccs1)C1CCCCC1(O)Cc1ccc(C(C)(C)C)cc1.Cl (centres unmarked) [Example 82, 1-(4-tert.-butylbenzyl)-2-[dimethylaminothiophen-2-ylmethyl]cyclohexanol, hydrochloride]",inhibition in vivo at 10 mg/kg,[1],100%
same,inhibition at 1 µM,NA transporter,0%
same,Diltiazem Binding at 10 μM,[3],85%
same,BTX Binding at 10 μM,[4],98%
"COc1ccc(CCN(C)CCCC(C#N)(c2ccc(OC)c(OC)c2)C(C)C)cc1OC (centres unmarked) [N-methyl-[^3H]-verapamil, reference compound]",Kd,"[2]; radioligand, N=2, read-out: KD value for this binding site",139 nM
